In patent US20230398130A1, “METHODS AND COMPOSITIONS FOR DIFFERENTIATING STEM CELLS” (Massachusetts Institute of Technology, priority 2020, published 2023):

Columns and labels:
ISC-enriched organoids [1] = test: Primary screen, 384-well 2.5-D organoid differentiation (ENR+CD, 6 days): basal lysozyme secretion (LYZ.NS); format: cell-based, murine; conditions: for Dose.FC.LYZ.NS (log 2 fold change): vs plate median; for Dose.FC.LYZ.NS: FC vs plate median; for Z.LYZ.NS: standard z score of FC
Text: (§1) High-throughput screening.

ISC-enriched organoids [2] = test: Primary screen, 384-well 2.5-D organoid differentiation (ENR+CD, 6 days): carbachol-induced lysozyme secretion (LYZ.S); format: cell-based, murine; conditions: for Dose.FC.LYZ.S (log 2 fold change): vs plate median; for Dose.FC.LYZ.S: FC vs plate median
Text: as §1

ISC-enriched organoids [3] = test: Primary screen, 384-well 2.5-D organoid differentiation (ENR+CD, 6 days, Target Selective Inhibitor Library, vs whole-plate median): ATP (CellTiter-Glo 3D, CTG); conditions: for Dose.FC.CTG (log 2 fold change): vs plate median; for Dose.FC.CTG: FC vs plate median; for Z.CTG: standard z score of FC

CN1CCC(CNc2ccc3ncc(-c4cccc(OC(F)(F)F)c4)n3n2)CC1 [SGI-1776free base]
Z.LYZ.NS (standard z score) (ISC-enriched organoids [1]; Dose 0.08 uM, primary screen): 1.013
Dose.FC.LYZ.NS (log 2 fold change) (ISC-enriched organoids [1]; Dose 0.08 uM, primary screen): 0.116
Z.LYZ.NS (standard z score) (ISC-enriched organoids [1]; Dose 0.40 uM, primary screen): 0.362
Dose.FC.LYZ.NS (log 2 fold change) (ISC-enriched organoids [1]; Dose 0.40 uM, primary screen): 0.042
Z.LYZ.NS (standard z score) (ISC-enriched organoids [1]; Dose 2.00 uM, primary screen): 0.108
Dose.FC.LYZ.NS (log 2 fold change) (ISC-enriched organoids [1]; Dose 2.00 uM, primary screen): 0.012
Z.LYZ.NS (standard z score) (ISC-enriched organoids [1]; Dose 10.00 uM, primary screen): −1.784
Dose.FC.LYZ.NS (log 2 fold change) (ISC-enriched organoids [1]; Dose 10.00 uM, primary screen): −0.205
Dose.FC.LYZ.S (log 2 fold change) (ISC-enriched organoids [2]; Dose 0.08 uM, primary screen): 0.159
Dose.FC.LYZ.S (log 2 fold change) (ISC-enriched organoids [2]; Dose 0.40 uM, primary screen): 0.088
Dose.FC.LYZ.S (log 2 fold change) (ISC-enriched organoids [2]; Dose 2.00 uM, primary screen): 0.011
Dose.FC.LYZ.S (log 2 fold change) (ISC-enriched organoids [2]; Dose 10.00 uM, primary screen): −0.317
Z.CTG (standard z score) (ISC-enriched organoids [3]; Dose 0.08 uM, primary screen): 0.407
Dose.FC.CTG (log 2 fold change) (ISC-enriched organoids [3]; Dose 0.08 uM, primary screen): 0.170
Z.CTG (standard z score) (ISC-enriched organoids [3]; Dose 0.40 uM, primary screen): 0.665
Dose.FC.CTG (log 2 fold change) (ISC-enriched organoids [3]; Dose 0.40 uM, primary screen): 0.278
Z.CTG (standard z score) (ISC-enriched organoids [3]; Dose 2.00 uM, primary screen): 0.506
Dose.FC.CTG (log 2 fold change) (ISC-enriched organoids [3]; Dose 2.00 uM, primary screen): 0.212
Z.CTG (standard z score) (ISC-enriched organoids [3]; Dose 10.00 uM, primary screen): −2.468
Dose.FC.CTG (log 2 fold change) (ISC-enriched organoids [3]; Dose 10.00 uM, primary screen): −1.033

CCc1c(C(=O)NCCc2ccc(N3CCCCC3)cc2)[nH]c2ccc(Cl)cc12 [Org 27569]
Dose.FC.LYZ.NS (ISC-enriched organoids [1]; Dose 0.08 uM, primary screen): 0.122 log 2 fold change
Z.LYZ.NS (ISC-enriched organoids [1]; Dose 0.08 uM): 1.060
Dose.FC.LYZ.NS (ISC-enriched organoids [1]; Dose 0.40 uM, primary screen): 0.051 log 2 fold change
Z.LYZ.NS (ISC-enriched organoids [1]; Dose 0.40 uM): 0.445
Dose.FC.LYZ.NS (ISC-enriched organoids [1]; Dose 2.00 uM, primary screen): 0.078 log 2 fold change
Z.LYZ.NS (ISC-enriched organoids [1]; Dose 2.00 uM): 0.683
Dose.FC.LYZ.NS (ISC-enriched organoids [1]; Dose 10.00 uM, primary screen): 0.029 log 2 fold change
Z.LYZ.NS (ISC-enriched organoids [1]; Dose 10.00 uM): 0.248
Dose.FC.LYZ.S (ISC-enriched organoids [2]; Dose 0.08 uM, primary screen): 0.174 log 2 fold change
Dose.FC.LYZ.S (ISC-enriched organoids [2]; Dose 0.40 uM, primary screen): 0.032 log 2 fold change
Dose.FC.LYZ.S (ISC-enriched organoids [2]; Dose 2.00 uM, primary screen): 0.059 log 2 fold change
Dose.FC.LYZ.S (ISC-enriched organoids [2]; Dose 10.00 uM, primary screen): 0.001 log 2 fold change
Dose.FC.CTG (ISC-enriched organoids [3]; Dose 0.08 uM, primary screen): 0.278 log 2 fold change
Z.CTG (ISC-enriched organoids [3]; Dose 0.08 uM): 0.663
Dose.FC.CTG (ISC-enriched organoids [3]; Dose 0.40 uM, primary screen): 0.072 log 2 fold change
Z.CTG (ISC-enriched organoids [3]; Dose 0.40 uM): 0.173
Dose.FC.CTG (ISC-enriched organoids [3]; Dose 2.00 uM, primary screen): 0.362 log 2 fold change
Z.CTG (ISC-enriched organoids [3]; Dose 2.00 uM): 0.865
Dose.FC.CTG (ISC-enriched organoids [3]; Dose 10.00 uM, primary screen): 0.270 log 2 fold change
Z.CTG (ISC-enriched organoids [3]; Dose 10.00 uM): 0.646

O=c1[nH]c2ccc(Cl)cc2c(N[C@@H]2CN3CCC2CC3)c1-c1nc2ccccc2[nH]1 [CHIR-124]
Dose.FC.LYZ.NS (ISC-enriched organoids [1]; Dose 0.08 uM, ENR+CD, 6 days): −0.155 log 2 fold change
Z.LYZ.NS (ISC-enriched organoids [1]; Dose 0.08 uM): −1.352
Dose.FC.LYZ.NS (ISC-enriched organoids [1]; Dose 0.40 uM, ENR+CD, 6 days): −0.240 log 2 fold change
Z.LYZ.NS (ISC-enriched organoids [1]; Dose 0.40 uM): −2.090
Dose.FC.LYZ.NS (ISC-enriched organoids [1]; Dose 2.00 uM, ENR+CD, 6 days): −0.220 log 2 fold change
Z.LYZ.NS (ISC-enriched organoids [1]; Dose 2.00 uM): −1.916
Dose.FC.LYZ.NS (ISC-enriched organoids [1]; Dose 10.00 uM, ENR+CD, 6 days): −0.140 log 2 fold change
Z.LYZ.NS (ISC-enriched organoids [1]; Dose 10.00 uM): −1.223
Dose.FC.LYZ.S (ISC-enriched organoids [2]; Dose 0.08 uM, ENR+CD, 6 days): −0.267 log 2 fold change
Dose.FC.LYZ.S (ISC-enriched organoids [2]; Dose 0.40 uM, ENR+CD, 6 days): −0.339 log 2 fold change
Dose.FC.LYZ.S (ISC-enriched organoids [2]; Dose 2.00 uM, ENR+CD, 6 days): −0.352 log 2 fold change
Dose.FC.LYZ.S (ISC-enriched organoids [2]; Dose 10.00 uM, ENR+CD, 6 days): −0.332 log 2 fold change
Dose.FC.CTG (ISC-enriched organoids [3]; Dose 0.08 uM, ENR+CD, 6 days): −0.256 log 2 fold change
Z.CTG (ISC-enriched organoids [3]; Dose 0.08 uM): −0.612
Dose.FC.CTG (ISC-enriched organoids [3]; Dose 0.40 uM, ENR+CD, 6 days): −0.853 log 2 fold change
Z.CTG (ISC-enriched organoids [3]; Dose 0.40 uM): −2.038
Dose.FC.CTG (ISC-enriched organoids [3]; Dose 2.00 uM, ENR+CD, 6 days): −0.861 log 2 fold change
Z.CTG (ISC-enriched organoids [3]; Dose 2.00 uM): −2.057
Dose.FC.CTG (ISC-enriched organoids [3]; Dose 10.00 uM, ENR+CD, 6 days): −1.555 log 2 fold change
Z.CTG (ISC-enriched organoids [3]; Dose 10.00 uM): −3.714
